Laboratory results taken from patent US20060079453A1, “Hla binding peptides and their uses” (priority 2002, published 2006).
Read-outs that look alike come from different tables or passages of the source. No end group written: not given here.

Experiments:
Assay in all cases: biochemical
Assay type in all cases: binding
HLA-B*4002 = HLA-B*4002 (Homo sapiens, UniProt P01889, A65T/A93T/A95T/D138N/D201E/D98Y/E176V/E204Q/E69K/K202T/N87E/Q56L/Q94N/R180L/S48T/Y33H/Y91S)
HLA-B*4403 = HLA-B*4403 (Homo sapiens, UniProt P01889, A223V/A65T/A93T/A95T/D201E/D98Y/E176V/E187L/E204Q/E69K/G107R/H137Y/K202T/L105A/L119I/N104T/N87E/Q56L/Q94N/R106L/R155S/R180L/S101N/S121R/S35A/S48T/T118I/V36M/W191S/Y140D/Y91S)
HLA-B*4001 = HLA-B*4001 (Homo sapiens, UniProt P01889, A65T/A93T/A95T/D138N/D98Y/E176V/E69K/N87E/Q56L/Q94N/R180L/S121R/S35A/S48T/T167S/V36M/W171L/Y33H/Y91S)
HLA-B*1801 = HLA-B*1801 (Homo sapiens, UniProt P01889, A329T/A93T/A95T/C349S/D201E/D54G/D98Y/E176V/E187T/E204Q/E69T/K202T/Q94N/R155S/R180L/S121R/V306I/Y140S/Y195H/Y33H/Y91S)
HLA-B*4501 = HLA-B*4501 (Homo sapiens, UniProt P01889, A329T/A65T/A93T/A95T/C349S/D138N/D201E/D98Y/E176V/E187L/E204Q/E69K/H137Y/K202T/L119W/N87E/Q56L/Q94N/R155S/R180D/S121R/S35A/S48T/V127L/V306I/V36M/W191S/Y140L/Y33H/Y91S)
HLA-B*4402 = HLA-B*4402 (Homo sapiens, UniProt P01889, A223V/A65T/A93T/A95T/D201E/D98Y/E176V/E187L/E204Q/E69K/G107R/H137Y/K202T/L105A/L119I/N104T/N87E/Q56L/Q94N/R106L/R155S/R180D/S101N/S121R/S35A/S48T/T118I/V36M/W191S/Y140D/Y91S)
HLA-DR DRB1*1302 (DR13) = HLA-DR DRB1*1302 (DR13) (Homo sapiens, UniProt P01903+P01911, A100E/A169T/K41T/L162R/M171V/P40S/Q125H/Q178H/Q39Y/Q99D/R42S/S66N/T262R/V115G/W38E/Y61H); conditions: DRBI *1302
Chain of HLA-DR DRB1*1302 (DR13) (P01903 26-254 limits assumed, other chains not shown): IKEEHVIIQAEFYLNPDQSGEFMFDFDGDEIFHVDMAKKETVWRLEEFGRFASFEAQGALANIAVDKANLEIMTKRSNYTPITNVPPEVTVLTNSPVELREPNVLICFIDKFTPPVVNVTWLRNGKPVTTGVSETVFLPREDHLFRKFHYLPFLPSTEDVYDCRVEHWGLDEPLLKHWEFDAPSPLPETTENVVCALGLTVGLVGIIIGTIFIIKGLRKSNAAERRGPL

HLA-DR DRB1*0901 (DR9) = HLA-DR DRB1*0901 (DR9) (Homo sapiens, UniProt P01903+P01911, A100R/A103E/D57H/D86V/F55Y/F60I/F76Y/I96F/K127E/L162R/M171V/P40D/Q125H/Q99R/R33Q/R42F/S133A/S66N/T210M/V115G/W38K/Y107V/Y59G/Y89S); conditions: DRB1 *0901
HLA-DR DRB1*0405 (DR4) = HLA-DR DRB1*0405 (DR4) (Homo sapiens, UniProt P01903+P01911, A100R/A169T/D86S/F76Y/I96L/K127E/L162R/M171V/N62H/P40V/Q125Y/R42H/S133A/S149N/S66Y/V115G/V209L/W38E); conditions: DRB1 *0405
HLA-DR DRB1*0401 (DR4) = HLA-DR DRB1*0401 (DR4) (Homo sapiens, UniProt P01903+P01911, A100K/A169T/F76Y/I96L/K127E/L162R/M171V/N62H/P40V/Q125Y/R42H/S133A/S149N/S66Y/V115G/V209L/W38E); conditions: DRB1 *0401
HLA-DR DRB3*0101 (DR52) = HLA-DR DRB3*0101 (DR52) (Homo sapiens, UniProt P01903+P79483)
HLA-DR DRB5*0101 (DR51) = HLA-DR DRB5*0101 (DR51) (Homo sapiens, UniProt P01903+Q30154); conditions: DRB5 *0101
HLA-DR DRB1*0301 (DR3) = HLA-DR DRB1*0301 (DR3) (Homo sapiens, UniProt P01903+P01911, A100K/A102G/A103R/A169T/F55Y/I96L/K41T/L162R/M171V/P40S/Q125H/Q178H/Q39Y/R42S/S66N/T106N/T262R/W38E/Y61H)
Chain of HLA-DR DRB1*0301 (DR3) (P01903 26-254 limits assumed, other chains not shown): as above

HLA-DR DRB1*0101 (DR1) = HLA-DR DRB1*0101 (DR1) (Homo sapiens, UniProt P01903+P01911, A100R/D57E/F55L/F60I/F76Y/I96L/L162R/M171V/P40L/Q125E/R42F/V115G/Y59C); conditions: DRB1 *0101
HLA-DR DRB1*1501 (DR15) = HLA-DR DRB1*1501 (DR15) (Homo sapiens, UniProt P01903+P01911); conditions: DRBI *1501
HLA-DR DRB1*0701 (DR7) = HLA-DR DRB1*0701 (DR7) (Homo sapiens, UniProt P01903+P01911, A100R/A102G/A103Q/D57E/D86V/E43K/F76Y/K127E/L162R/M171V/P40G/Q125H/Q99D/R33Q/R42Y/R54Q/S133A/S66F/T210M/V115G/Y107V/Y59L/Y89S); conditions: DRB1 *0701
HLA-DR DRB1*1101 (DR11) = HLA-DR DRB1*1101 (DR11) (Homo sapiens, UniProt P01903+P01911, A100R/A169T/A87E/I96F/K41T/L162R/M171V/P40S/Q125H/Q178H/Q39Y/Q99D/R42S/S66Y/T262R/V115G/W38E); conditions: DRB1 *1101
Chain of HLA-DR DRB1*1101 (DR11) (P01903 26-254 limits assumed, other chains not shown): as above

HLA-DR DRB1*0802 (DR8) = HLA-DR DRB1*0802 (DR8) (Homo sapiens, UniProt P01903+P01911, A100R/A103L/A169T/F76Y/H45Y/I96F/K41T/L162R/M171V/P40S/Q125H/Q178H/Q39Y/Q99D/R218S/R42G/S66Y/V115G/W38E)

Sequence | IC50 (HLA-B*4002) [nM] | IC50 (HLA-B*4403) [nM] | IC50 (HLA-B*4001) [nM] | IC50 (HLA-B*1801) [nM] | IC50 (HLA-B*4402) [nM] | IC50 (HLA-B*4403; B*4403) [nM] | further results
AENLWVTNY | 948 | 74 | 865 | 730 |  |  | 
AENLWVTPY |  | 44 | 274 | 41 | 127 |  | IC50 (HLA-B*4501): 122 nM
AENLWVTVI | 7.3 | 88 | 14 | 11200 |  |  | IC50 (HLA-B*4501): 54 nM
AENLWVTVL | 13 | 208 | 14 | 6200 | 68 |  | 
AENLWVTVR | 1740 | 1470 |  | 33000 |  |  | IC50 (HLA-B*4501): 233 nM
AENLWVTVW |  | 324 | 1300 | 22600 |  |  | IC50 (HLA-B*4501): 204 nM
AENPWVTVY | 224 | 53 |  | 27 | 18 |  | 
AENTWVTVY |  | 166 | 1450 | 213 | 386 |  | IC50 (HLA-B*4501): 442 nM
AEPLWVTVY | 2480 | 96 | 1730 | 310 |  |  | 
AETFYVDGA |  |  |  |  |  | 6920 | IC50 (HLA-B*4501; B*4501): 38 nM; IC50 (HLA-B*4001; B*4001): 21600 nM; IC50 (HLA-B*4402; B*4402): > 21200 nM; IC50 (HLA-B*1801; B*1801): > 6710 nM
AEVLWVTVY | 436 | 390 | 1550 |  | 1520 |  | 
ATNLWVTVY |  |  |  |  |  |  | IC50 (HLA-B*4002; read-out: B*4002): > 155000 nM; IC50 (HLA-B*4501; read-out: B*4501): > 49000 nM; IC50 (HLA-B*4403; read-out: B*4403): > 43000 nM; IC50 (HLA-B*4001; read-out: B*4001): 487 nM; IC50 (HLA-B*1801; read-out: B*1801): 17600 nM
GEFGGYGSV |  |  |  |  |  | 534 | IC50 (HLA-B*4002; B*4002): 6.4 nM; IC50 (HLA-B*4501; B*4501): 40 nM; IC50 (HLA-B*4402; B*4402): 2340 nM
GEISPYPSL | 1.8 | 293 | 24 | 19400 |  |  | 
KEKGGLDGL |  |  |  |  |  | > 10500 | IC50 (HLA-B*4501; B*4501): 9930 nM; IC50 (HLA-B*4001; B*4001): 55 nM; IC50 (HLA-B*4402; B*4402): > 81400 nM; IC50 (HLA-B*1801; B*1801): > 22800 nM
LWQLNGRLEYTLKDR |  |  |  |  |  | 0.11 | IC50 (HLA-DR DRB1*1302 (DR13)): 2450 nM; IC50 (HLA-DR DRB1*0901 (DR9)): 16600 nM; IC50 (HLA-DR DRB1*0405 (DR4)): 94 nM; IC50 (HLA-DR DRB1*0401 (DR4)): 757 nM; IC50 (HLA-DR DRB3*0101 (DR52)): 4400 nM; IC50 (HLA-DR DRB5*0101 (DR51)): 6000 nM; IC50 (HLA-DR DRB1*0301 (DR3)): 511 nM; IC50 (HLA-DR DRB1*0101 (DR1)): 698 nM; IC50 (HLA-DR DRB1*1501 (DR15)): 853 nM; IC50 (HLA-DR DRB1*0701 (DR7)): 20200 nM; IC50 (HLA-DR DRB1*1101 (DR11)): 6520 nM; IC50 (HLA-DR DRB1*0802 (DR8)): 43300 nM
NENLWVTVY | 11800 | 224 | > 72700 | 38 | 453 |  | 
SEAIHTFQY |  |  |  |  |  | 16 | IC50 (HLA-B*4002; B*4002): 1800 nM; IC50 (HLA-B*4001; B*4001): 2900 nM; IC50 (HLA-B*4402; B*4402): 18 nM; IC50 (HLA-B*1801; B*1801): 25 nM
SEAIYTFQF |  |  |  |  |  | 20 | IC50 (HLA-B*4501; B*4501): 293 nM; IC50 (HLA-B*4001; B*4001): 967 nM; IC50 (HLA-B*4402; B*4402): 4.8 nM; IC50 (HLA-B*1801; B*1801): 5.7 nM
TEPAAVGVGAV |  |  |  |  |  | 459 | IC50 (HLA-B*4501; B*4501): 8240 nM; IC50 (HLA-B*4001; B*4001): 930 nM; IC50 (HLA-B*1801; B*1801): > 8120 nM
